Results published in patent US20260284203A1 (priority 2023, published 2026).
Where two headings read alike, the source gives them in different places.

Key:
Supercoiled plasmid = test: In vitro DNA nicking assay; format: biochemical, E. coli; conditions: 10 μM CuCl2, 3 hours at room temperature (21° C.) in the dark
Method: The capacity of rCAM compounds to cause DNA damage was evaluated using an in vitro DNA nicking assay. Specifically, the double stranded DNA (dsDNA) nicking activity of exemplary rCAM DP41-0012 was compared to CAM compounds bersacapavir and NVR-3-778, and DMSO controls.
Supercoiled plasmid, the substrate for this assay, was purified from E. coli, using a Qiagen miniprep kit. A “master mix” of 3 ng/μl Miniprep DNA, 10 μM CuCl2, 20 mM TrisHCl pH7.5 was prepared. Samples included 99 μl of master mix plus 1 μl of compound or control. Reactions were incubated for 3 hours at room temperature (21° C.) in the dark. Aliquots of the reactions (20 μl) were resolved on a 0.8% TAE agarose gel with 1/20,000 SYBR Safe stain electrophoresed at 80V for 90 minutes. The gel was visualized on a ChemidocMP in fluorescein blot mode.

[1] = target: purified capsid protein assembly domain, Cp149 (Hepatitis B virus subtype adyw, UniProt P03147); test: Capsid assembly assay (size exclusion chromatography); format: biochemical, HBV; conditions: 10 μM Cp149 dimer, 20 μM compound, 24 h at room temperature, versus capsid control
Method: Stimulation of HBV virus assembly is a known property of CAM molecules. As structural changes can have unpredictable effects on function, a capsid assembly assay was conducted with exemplary rCAM DP41-0012 to evaluate whether the construct retained CAM activity. Relative peak HBV capsid volume following exposure to the exemplary rCAM was determined in comparison to dimer, DMSO, and capsid controls, along with CAM compounds bersacapavir and NVR-3-778.
To test capsid assembly, samples or controls were incubated for 20 minutes with purified capsid protein assembly domain, Cp149, so that final conditions were 10 μM Cp149 dimer 20 μM compound or control 2% DMSO 50 mM TrisHCl pH 7.5. To this mixture was added an equal volume of 600 mM NaCl 50 mM TrisHCl pH 7.5. Reactions were equilibrated for 24 h at room temperature and the resolved by size exclusion chromatography using a 10/300 Superose6 column running at 0.5 ml/minute. The running buffer for this column was 50 mM TrisHCl 300 mM NaCl. Elution profiles were recorded by absorbance at 280 nm. Integrated capsid peaks eluting between 16 and 20 minutes and dimer peaks eluting between 34 and 39 minutes were reported.

[2] = tested on: in vitro transcribed pregenomic HBV RNA (pgRNA); test: pgRNA activity assay by denaturing agarose gel electrophoresis; format: biochemical; conditions: for RNA signal on gel, free pgRNA: 100 μM; for RNA signal on gel, free pgRNA / RNA bands on gel, free pgRNA: 1% or 10% DMSO; for RNA bands on gel, free pgRNA / pgRNA band on denaturing agarose gel: 900 μM; for pgRNA band on denaturing agarose gel: 1 hour
Cp149 dimers = Cp149 dimers (Hepatitis B virus subtype adyw, UniProt P03147); test: Cp149 dimer assembly with rCAM visualized by transmission electron microscopy; format: biochemical, HBV; conditions: dimer:rCAM 1:5, NaCl 300 mM, overnight at 25° C.
Method: Cp dimers were assembled with HAP-PEG2-CBL and HAP-PEG4-CBL to verify the HAP backbone's ability to bind the dimer-dimer interface. Cp149 dimers were mixed with each rCAM in a 1:5 ratio (dimer:rCAM). Assembly was induced by addition of NaCl (300 mM) followed by incubation overnight at 25° C. Assembly products were visualized via transmission electron microscopy (TEM) (FIG. 10). Assembly in NaCl alone led to normal spherical capsids (FIG. 10A). […] Boume, C., et al., J Virol 82:10262, 2008.

[3] = tested on: in vitro transcribed pregenomic HBV RNA (pgRNA); format: biochemical; conditions: for effect on pgRNA amplification / RNA transcription (RT-qPCR, Cp gene): either temperature (25° C. or 37° C.)
[4] = 25° C. and 37° C. (both temperature conditions)

Cp149 dimers, sequence (P03147 1-149): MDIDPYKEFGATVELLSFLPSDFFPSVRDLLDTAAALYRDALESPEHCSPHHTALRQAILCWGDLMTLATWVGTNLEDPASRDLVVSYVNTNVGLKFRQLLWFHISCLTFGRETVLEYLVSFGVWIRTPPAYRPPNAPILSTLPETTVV
purified capsid protein assembly domain, Cp149, sequence (P03147 1-149): as above

Molecule: Cn1cc(S(=O)(=O)NCCNC(=O)c2cc(O)c(O)c(O)c2)cc1C(=O)Nc1ccc(F)c(C#N)c1 [DP41-0012, N-(3-cyano-4-fluorophenyl)-1-methyl-4-(N-(2-(3,4,5-trihydroxybenzamido)ethyl)-sulfamoyl)-1H-pyrrole-2-carboxamide]
- plasmid DNA form seen on agarose gel (dsDNA nicking activity) (Supercoiled plasmid): DNA band corresponding to the size of a nicked circle
- relative peak capsid volume [1]: exceeded that of the capsid control

Molecule: COC(=O)C1=C(CN2CCN(C(=O)CCOCCOCCOC(=O)CCCc3ccc(N(CCCl)CCCl)cc3)CC2)NC(c2ccccn2)=NC1c1ccc(F)cc1Cl (stereo not drawn) [HAP-PEG2-CBL, Methyl 6-((4-(3-(2-(2-((4-(4-(bis(2-chloroethyl)amino)phenyl)butanoyl)oxy)ethoxy)ethoxy)propanoyl)piperazin-1-yl)methyl)-4-(2-chloro-4-fluorophenyl)-2-(pyridin-2-yl)-1,4-dihydropyrimidine-5-carboxylate]
- RNA signal on gel, free pgRNA ([2]; 37° C.): slight reduction in RNA signal
- RNA bands on gel, free pgRNA ([2]; 37° C.): almost complete dissipation of RNA bands
- assembly products seen by TEM (Cp149 dimers): both spherical capsids, faceted/broken capsids, and flat, aberrant structures

Molecule: COC(=O)C1=C(CN2CCN(C(=O)CCOCCOCCOCCOCCOC(=O)CCCc3ccc(N(CCCl)CCCl)cc3)CC2)NC(c2ccccn2)=NC1c1ccc(F)cc1Cl (stereo not drawn) [HAP-PEG4-CBL]
- RNA signal on gel, free pgRNA ([2]; 37° C.): slight reduction in RNA signal
- RNA bands on gel, free pgRNA ([2]; 37° C.): almost complete dissipation of RNA bands
- assembly products seen by TEM (Cp149 dimers): floret-shaped, aberrant particles

Molecule: O=C(Nc1cc(F)c(F)c(F)c1)c1ccc(F)c(S(=O)(=O)N2CCC(O)CC2)c1 [NVR-3-778]
- plasmid DNA form seen on agarose gel (dsDNA nicking activity) (Supercoiled plasmid): supercoiled plasmid substrate was detectable

Molecule: CN(C)c1nc(N(C)C)nc(N(C)C)n1 [altretamine]
- effect on pgRNA amplification / RNA transcription (RT-qPCR, Cp gene) ([3]; 900 μM, 1 hour): does affect RNA transcription

Molecule: C[C@H](NS(=O)(=O)c1cc(C(=O)Nc2ccc(F)c(C#N)c2)n(C)c1)C(F)(F)F [bersacapavir]
- plasmid DNA form seen on agarose gel (dsDNA nicking activity) (Supercoiled plasmid): supercoiled plasmid substrate was detectable

Molecule: O=C(O)CCCc1ccc(N(CCCl)CCCl)cc1 [chlorambucil]
- pgRNA band on denaturing agarose gel [2, 4]: completely dissipate RNA
- reduction in RNA amplification (RT-qPCR, Cp gene) ([3]; 900 μM, 1 hour, 25° C.): approximately 1 log
- decrease in RNA levels (RT-qPCR, Cp gene) ([3]; 900 μM, 1 hour, 37° C.): 4 log

Molecule: N.N.[Cl][Pt][Cl] [cisplatin]
- pgRNA band on denaturing agarose gel [2, 4]: faster migrating and smeared bands
- decrease in RNA levels (RT-qPCR, Cp gene) [3]: 3 log
- reduction in RNA amplification (RT-qPCR, Cp gene) [3]: approximately 1 log

Molecule: CO[C@@]12[C@H](COC(N)=O)C3=C(C(=O)C(C)=C(N)C3=O)N1C[C@@H]1N[C@@H]12 [mitomycin C]
- effect on pgRNA amplification / RNA transcription (RT-qPCR, Cp gene) ([3]; 900 μM, 1 hour): does affect RNA transcription

Molecule: phleomycin
- pgRNA band on denaturing agarose gel ([2]; 37° C.): completely disappeared
- pgRNA band on denaturing agarose gel ([2]; room temperature (25° C.)): reduced in width
- effect on pgRNA amplification / RNA transcription (RT-qPCR, Cp gene) ([3]; 900 μM, 1 hour): does not suppress pgRNA amplification appreciably
